From US6358885B1, “Substituted phenylheterocyclic herbicides” (Mississippi State University, priority 1992, dated 2002)

Assays:
cocklebur = assay: Test B preemergence/postemergence greenhouse plant response rating 0 to 10; format: in vivo, Xanthium pensylvanicum; details: 0 to 10 scale
Procedure, shortened: (§1)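 Test chemicals, dissolved in a non-phytotoxic solvent, were applied to soil at planting and, at the same time, over foliage of seedlings at the one to four leaf stage.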

sorghum = assay: as above; format: in vivo, Sorghum bicolor; details: 0 to 10 scale
Procedure, shortened: as §1

cotton = assay: as above; format: in vivo, Gossypium hirsutum; details: 0 to 10 scale
Procedure, shortened: as §1

wild oat = assay: as above; format: in vivo, Avena fatua; details: 0 to 10 scale
Procedure, shortened: as §1

blackgrass = assay: Test C preemergence/postemergence greenhouse plant response rating 0 to 100; format: in vivo, Alopecurus myosuroides; details: POSTEMERGENCE; for Plant response rating, Blackgrass: 0 to 100 scale
Source text: (§2) The compounds evaluated in this test were formulated in a non-phytoxic solvent and applied to the soil surface before plant seedlings emerged (preemergence application), to water that covered the soil surface (flood application), and to plants that were in the one-to-four leaf stage (postemergence application). A sandy loam soil was used for the preemergence and postemergence tests, while a silt loam soil was used in the flood test. Water depth was approximately 2.5 cm for the flood test and was maintained at this level for the duration of the test. Plant species in the preemergence and postemergence tests consisted of barley (Hordeum vulgare), bedstraw (Galium aparine), blackgrass (Alopecurus myosuroides), chickweed (Stellaria media), corn (Zea mays), cotton (Gossypium hirsutum), crabgrass (Digitaria sanguinalis), downy brome (Bromus tectorum), giant foxtail (Setaria faberii), lambsquarters (Chenopodium album), morningglory (Ipomoea hederacea), pigweed ([…]), rape (Brassica napus), ryegrass (Lolium multiflorum), sorghum (Sorghum bicolor), soybean (Glycine max), speedwell (Veronica persica), sugar beet (Beta vulgaris), velvetleaf (Abutilon theophrasti), wheat (Triticum aestivum), wild buckwheat (Polygonum convolvulus), and wild oat (Avena fatua). All plant species were planted one day before application of the compound for the preemergence portion-of this test. Plantings of these species were adjusted to produce plants of appropriate size for the post-emergence portion of the test. […] All plant species were grown using normal greenhouse practices. Visual evaluations of injury expressed on treated plants, when compared to untreated controls, were recorded approximately fourteen to twenty one days after application of the test compound. […] A dash (-) response means no test result.

umbrella sedge = assay: Test C flood test plant response rating 0 to 100; format: in vivo, Cyperus difformis; details: for Plant response rating (0 to 100), Umbrella sedge: under POSTEMERGENCE head (flood test species); for Plant response rating Umbrella sedge: flood test species listed under POSTEMERGENCE, 0 to 100 scale
Source text: as §2

rape = assay: Test C preemergence/postemergence greenhouse plant response rating 0 to 100; format: in vivo, Brassica napus; details: POSTEMERGENCE; for Plant response rating, Rape: 0 to 100 scale
Source text: as §2

barnyardgrass = assay: Test B preemergence/postemergence greenhouse plant response rating 0 to 10; format: in vivo, Echinochloa crus-galli; details: 0 to 10 scale
Procedure, shortened: as §1

rice [1] = assay: as above; format: in vivo, Oryza sativa; details: 0 to 10 scale
Procedure, shortened: as §1

morningglory = assay: as above; format: in vivo, Ipomoea hederacea; details: 0 to 10 scale
Procedure, shortened: as §1

rice [2] = assay: Test C flood test plant response rating 0 to 100; format: in vivo, Oryza sativa; details: for Plant response rating (0 to 100), Rice Japonica: under POSTEMERGENCE head (flood test species); for Plant response rating Rice Japonica: flood test species listed under POSTEMERGENCE, 0 to 100 scale
Source text: as §2

crabgrass = assay: Test C preemergence/postemergence greenhouse plant response rating 0 to 100; format: in vivo, Digitaria sanguinalis; details: POSTEMERGENCE; for Plant response rating, Crabgrass: 0 to 100 scale
Source text: as §2

wheat = assay: Test B preemergence/postemergence greenhouse plant response rating 0 to 10; format: in vivo, Triticum aestivum; details: 0 to 10 scale
Procedure, shortened: as §1

Compound: C#CC(C)Oc1cc(-c2nn3c(c2Cl)CCCC3)c(F)cc1Cl (stereo not drawn) [Compound 36]
- Plant response rating, Cocklebur (cocklebur; POSTEMERGENCE, Rate 50 g/ha): 9
- Plant response rating, Cocklebur (cocklebur; POSTEMERGENCE, Rate 200 g/ha): 10
- Plant response rating, Cocklebur (cocklebur; PREEMERGENCE, Rate 50 g/ha): 0
- Plant response rating, Cocklebur (cocklebur; Rate 200 g/ha, PREEMERGENCE): 2
- Plant response rating, Sorghum (sorghum; POSTEMERGENCE, Rate 50 g/ha): 5
- Plant response rating, Sorghum (sorghum; PREEMERGENCE, Rate 50 g/ha): 0
- Plant response rating, Sorghum (sorghum; Rate 200 g/ha, POSTEMERGENCE): 6
- Plant response rating, Sorghum (sorghum; Rate 200 g/ha, PREEMERGENCE): 1
- Plant response rating, Cotton (cotton; POSTEMERGENCE, Rate 50 g/ha): 9
- Plant response rating, Cotton (cotton; POSTEMERGENCE, Rate 200 g/ha): 10
- Plant response rating, Cotton (cotton; PREEMERGENCE, Rate 50 g/ha): 4
- Plant response rating, Cotton (cotton; Rate 200 g/ha, PREEMERGENCE): 6
- Plant response rating, Wild oat (wild oat; POSTEMERGENCE, Rate 50 g/ha): 5
- Plant response rating, Wild oat (wild oat; PREEMERGENCE, Rate 50 g/ha): 3
- Plant response rating, Wild oat (wild oat; Rate 200 g/ha, POSTEMERGENCE): 6
- Plant response rating, Blackgrass (blackgrass; 62 g/ha): 50
- Plant response rating, Blackgrass (blackgrass; 125 g/ha): 70
- Plant response rating (0 to 100), Blackgrass (blackgrass; Rate 16 g/ha): 30
- Plant response rating (0 to 100), Blackgrass (blackgrass; Rate 31 g/ha): 40
- Plant response rating (0 to 100), Umbrella sedge (umbrella sedge; Rate 16 g/ha): 0
- Plant response rating (0 to 100), Umbrella sedge (umbrella sedge; Rate 31 g/ha): 20
- Plant response rating Umbrella sedge (umbrella sedge; 62 g/ha): 70
- Plant response rating Umbrella sedge (umbrella sedge; 125 g/ha): 80
- Plant response rating, Rape (rape; 62 g/ha): 100
- Plant response rating, Rape (rape; 125 g/ha): 100
- Plant response rating (0 to 100), Rape (rape; Rate 16 g/ha): 85
- Plant response rating (0 to 100), Rape (rape; Rate 31 g/ha): 90
- Plant response rating, Barnyardgrass (barnyardgrass; POSTEMERGENCE, Rate 50 g/ha): 6
- Plant response rating, Barnyardgrass (barnyardgrass; POSTEMERGENCE, Rate 200 g/ha): 9
- Plant response rating, Barnyardgrass (barnyardgrass; PREEMERGENCE, Rate 50 g/ha): 3
- Plant response rating, Barnyardgrass (barnyardgrass; Rate 200 g/ha, PREEMERGENCE): 5
- Plant response rating, Rice (rice [1]; POSTEMERGENCE, Rate 50 g/ha): 6
- Plant response rating, Rice (rice [1]; PREEMERGENCE, Rate 50 g/ha): 0
- Plant response rating, Rice (rice [1]; Rate 200 g/ha, POSTEMERGENCE): 6
- Plant response rating, Rice (rice [1]; Rate 200 g/ha, PREEMERGENCE): 4
- Plant response rating, Morningglory (morningglory; POSTEMERGENCE, Rate 50 g/ha): 8
- Plant response rating, Morningglory (morningglory; PREEMERGENCE, Rate 50 g/ha): 0
- Plant response rating, Morningglory (morningglory; Rate 200 g/ha, POSTEMERGENCE): 10
- Plant response rating, Morningglory (morningglory; Rate 200 g/ha, PREEMERGENCE): 2
- Plant response rating (0 to 100), Rice Japonica (rice [2]; Rate 16 g/ha): 20
- Plant response rating (0 to 100), Rice Japonica (rice [2]; Rate 31 g/ha): 35
- Plant response rating Rice Japonica (rice [2]; 62 g/ha): 40
- Plant response rating Rice Japonica (rice [2]; 125 g/ha): 50
- Plant response rating, Crabgrass (crabgrass; 62 g/ha): 50
- Plant response rating, Crabgrass (crabgrass; 125 g/ha): 60
- Plant response rating (0 to 100), Crabgrass (crabgrass; Rate 16 g/ha): 20
- Plant response rating (0 to 100), Crabgrass (crabgrass; Rate 31 g/ha): 30
- Plant response rating, Wheat (wheat; POSTEMERGENCE, Rate 50 g/ha): 5
- Plant response rating, Wheat (wheat; PREEMERGENCE, Rate 50 g/ha): 5
- Plant response rating, Wheat (wheat; Rate 200 g/ha, POSTEMERGENCE): 6
- Plant response rating, Wheat (wheat; Rate 200 g/ha, PREEMERGENCE): 5
